For series [1], the system named is Bcl-2 transgenic mice (B6Bcl2). Description: Bcl-2 transgenic mice, spleen weight. Format: in vivo, mouse. The settings on record: for in vivo activity in Bcl-2 transgenic mice: single i.p. 42 mg/kg. How it is done: Transgenic mice expressing Bcl-2 have been described as the B6 line.^48 The BCL-2 transgene represents a minigene version of a t(14;18) translocation in which the human BCL-2 gene is fused with the immunoglobulin heavy-chain (IgH) locus and associated IgH enhancer. The transgene was propagated on the Balb/c background.
After 24 hours, B6Bcl2 mice were sacrificed by intraperitoneal injection of lethal dose of Avertin. Spleen was removed and weighed.

The subject of series [2] is wild type mouse embryonic fibroblast cells (MEF/WT). In words: Apoptosis, FITC-Annexin V/PI assay, MEF/WT. In kind it is cell-based. The settings on record: 30 μM. As to the method:
(§1) Wild-type MEF and DKO/MEF were seeded in 24-well plate at a seeding density of half a million per well (in 1 ml of DMEM medium supplemented by 10% FCS). Next day, compound was added to wild-type and DKO cells at final concentration of 0, 2.5, 5.0, 7.5, 10 and 30 μM. On the following day, floating cells were pooled with adherent cells harvested after brief incubation with 0.25% Trypsin/EDTA solution (Gibco/In-Vitrogen Inc.). Cells were centrifuged and supernatant was discarded, and cell pellet was re-suspended with 0.2 ml of Annexin-V binding buffer, followed by addition of 1 μl Annexin-FITC and 1 μl PI (propidium iodide). The percentage of viable cells was determined by a 3-color FACSort instrument and data analyzed by Flow-Jo program, scoring Annexin V-negative, PI-negative as viable cells.

For series [3], the target named is T1, Bcl-XL (Homo sapiens, UniProt Q07817). In words: Isothermal Titration Calorimetry assay (ITC). In kind it is binding. The settings on record: Kd ratio versus 12-14. (In general: ITC needs no label: the signal is the heat of the interaction.)
A further series relates to M2182 cells. Description: Prostate cancer xenograft in athymic nude mice. The settings on record: for inhibitory effect of tumor size compared with the control group: all doses, i.p. every 2 days. Format: in vivo, mouse.
Series [4] is described as follows: Chemical stability at different temperatures. In kind it is physicochemical. The settings on record: compared to 12-14.
A further series deals with Mcl-1 (Homo sapiens, UniProt Q07820). In words: 2D [15N,1H]-TROSY NMR binding, Mcl-1. The settings on record: 2D TROSY, ligand/protein ratio of 2:1.
The subject of series [5] is Bax/Bak double knockout MEF cells (MEF/DKO). Description: Apoptosis, FITC-Annexin V/PI assay, MEF/DKO. In kind it is cell-based, mouse. The settings on record: for toxicity in MEF/DKO cells: 30 μM, FITC-Annexin V/PI. As to the method: as §1, with “Next day, compound was added to wild-type and DKO cells at final concentration of 0, 2.5, 5.0, 7.5, 10 and 30 μM.” left out

Series [6] can be described thus: Cell membrane permeability (PAMPA, LogPe). In kind it is in vitro ADME. The settings on record: compared to 12-14. From the text: (§2) Next, we examined the pharmacological properties of the isomers as chirality could greatly affect such properties due to stereoselective metabolism. To test the pharmacological properties of diastereoisomers 11-14, we determined their in vitro rat plasma stability, rat microsomal stability, and cell membrane permeability (Table 4).

Series [7] in a line: In vitro rat plasma stability. Format: in vitro ADME.
Text: as §2

The conditions of series [8]: rat, 40 min.
Text: as §2

Series [9] has as its target T1, Bcl-XL. In words: NMR binding assays (1D 1H-NMR, 2D [15N,1H]-TROSY), Bcl-XL. The settings on record: 2D TROSY at ligand/protein ratio 1:1.
The subject of series [10] is MDA-MB-231 breast cancer cells. The settings on record: reference 13; read-out: EC50 in killing MDA-MB-231 breast cancer cells; cited from earlier work.
The subject of series [11] is cancer cells that overexpress Mcl-1. The settings on record: references 32, 36; cited from earlier work.
A further series concerns BP3 cell line. Description: Apoptosis, Annexin V-FITC and propidium iodide assay, BP3. Format: cell-based, human.
The next series concerns H460 cells. Description: Cell viability, ATP-LITE assay, H460. In kind it is cell-based, human. The settings on record: 72 hours of treatment. How it is done: The activity of the compounds against human cancer cell lines (PC3, H460, H1299) were assessed by using the ATP-LITE assay (PerkinElmer). All cells were seeded in either […] or RPMI1640 medium with 5 mM L-glutamine supplemented with 5% fetal bovine serum (Mediatech Inc.), penicillin and streptomycin (Omega). For maintenance, cells were cultured in 5% FBS. Cells plated into 96 well plates at varying initial densities depending on doubling time. […] Compounds were diluted to final concentrations with 0.1% DMSO. Prior to dispensing compounds onto cells, fresh 5% media was placed into wells. Administration of compounds occurred 24 hours after seeding into the fresh media. Cell viability was evaluated using ATP-LITE reagent (PerkinElmer) after 72 hours of treatment. Data were normalized to the DMSO control-treated cells using Prism version 5.01 (Graphpad Software).

The structures appear in SMILES notation. “Also recorded” adds a separate entry of the source.

T1 sequence (Q07817 whole entry): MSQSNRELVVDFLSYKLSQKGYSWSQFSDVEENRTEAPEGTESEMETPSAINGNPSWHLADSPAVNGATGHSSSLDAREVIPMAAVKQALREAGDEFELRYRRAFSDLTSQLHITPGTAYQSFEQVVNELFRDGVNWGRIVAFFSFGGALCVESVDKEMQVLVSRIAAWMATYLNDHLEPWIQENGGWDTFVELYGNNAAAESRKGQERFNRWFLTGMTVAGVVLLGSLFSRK
Mcl-1, sequence (Q07820 whole entry): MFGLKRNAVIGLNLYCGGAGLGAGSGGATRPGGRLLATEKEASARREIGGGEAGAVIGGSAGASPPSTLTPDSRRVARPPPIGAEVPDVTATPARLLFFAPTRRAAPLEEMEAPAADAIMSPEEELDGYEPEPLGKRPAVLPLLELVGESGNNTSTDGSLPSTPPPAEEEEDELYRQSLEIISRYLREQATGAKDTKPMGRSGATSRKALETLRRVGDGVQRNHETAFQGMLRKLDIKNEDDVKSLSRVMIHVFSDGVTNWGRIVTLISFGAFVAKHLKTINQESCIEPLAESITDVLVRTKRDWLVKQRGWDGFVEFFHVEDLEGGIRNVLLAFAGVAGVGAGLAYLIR
Procedure for BP3 cell line: The apoptotic activity of the compounds against BP3 cells was assessed by staining with Annexin V- and propidium iodide (PI). BP3 cell line was cultured in RPMI 1640 medium (Mediatech Inc., Herndon, Va. 20171) containing 10% fetal bovine serum (Mediatech Inc., Herndon, Va. 20171) and Penicillin/Streptomycin (Mediatech Inc., Herndon, Va. 20171). […] The percentage of viable cells was determined by FITC-Annexin V- and propidium iodide (PI)-labeling, using an Apoptosis Detection kit (BioVision Inc.), and analyzing stained cells by flow cytometry (FACSort; Bectin-Dickinson, Inc.; Mountain View, Calif.). Cells that were annexin-V-negative and PI-negative were considered viable.
Procedure for M2182 cells: Cells were then selected for 2 weeks in 200 μg/ml of hygromycin, and individual colonies were isolated, expanded, and maintained in 5 μg/m1 hygromycin. The overexpression of luciferase in these clones was confirmed by measuring luciferase activity.
M2182-Luc cells (1×10^6) were injected s.c. in 100 μL of PBS in the left and right flanks of male athymic nude mice (NCR^nu/nu, 4 weeks old, 20 g body weight) as described previously.^40 After establishing visible tumors of ˜75-mm^3, requiring ˜5-6 days, compound dissolved in 500 μL of solvent (ethanol/Cremophor EL/saline=10:10:80) were injected intraperitoneally (i.p.). The injections were given every 2 days for a total of nine injections. […] A minimum of five animals was used per experimental condition. For in vivo imaging of tumors, the mice were anesthetized and injected i.p. with 150 mg/kg luciferin and light emitted from each tumor was determined using a Xenogen system with CCD camera with an integration time of 1 min. Luminescence measurements were made using Living Image software (version 2.50.1; Xenogen). At the end of the experiment, the animals were sacrificed, and the tumors were removed and photographed.

On to `Cc1cc2c(C(=O)NC[C@@H](C)c3ccccc3)c(O)c(O)cc2c(O)c1-c1c(C)cc2c(C(=O)NC[C@H](C)c3ccccc3)c(O)c(O)cc2c1O` (atropisomer, axis not shown) [Compound 11], for which the “in vivo activity in Bcl-2 transgenic mice” value in series [1] was “superior in vivo activity”. In addition, the spleen weight reduction result in [1] (single i.p. injection at 42 mg/kg, 24 hours) is listed as “more than 30%”. Also, the “wild type MEF cells killed” value in [2] is given as roughly 70%. The “times more potent than other isomers 12-14 in ITC assay” value at Bcl-XL [3] is 4-20 times. Further, the “tumor growth inhibited to % of the tumor volume in the control group” value in the series on M2182 cells (3 mg/kg i.p. every 2 days, nine injections) was roughly 60%. Moreover, in the series with M2182 cells (5 mg/kg i.p. every 2 days, nine injections), the “inhibition of tumor growth in both flanks” value is given as “near complete inhibition of tumor growth”. Further, in the series with M2182 cells, the “inhibitory effect of tumor size compared with the control group” value was “marked inhibitory effect of tumor size”. For the same compound, in series [4], the “chemical stability” value was “better chemical stability”. In addition, the “NMR binding to Mcl-1” value on Mcl-1 is “significant binding”. In [5], the “cytotoxicity against bax−/−bak−/− cells (summary statement)” value is “less cytotoxicity; also recorded: little cytotoxicity” and the “toxicity in MEF/DKO cells” value is given as “slight toxicity”. For the same compound, the “cell membrane permeability” value in series [6] is listed as “superior cell membrane permeability”. Further, the “Plasma stability (T = 1 h)” value in [7] amounted to 41%. Also, in series [8], the “microsomal stability” value is “relatively good microsomal stability”. For the same compound, the “NMR binding to Bcl-XL” value at Bcl-XL [9] was “larger chemical shift perturbations; also recorded: low to submicromolar binding affinity”.
A word on the EC50: it is the concentration at which the effect is half-maximal. As to `Cc1cc2c(C(C)C)c(O)c(O)c(C=O)c2c(O)c1-c1c(C)cc2c(C(C)C)c(O)c(O)c(C=O)c2c1O` [(+) 1], the EC50 in series [10] is roughly 10 µM.
With `CN(C)CC[C@H](CSc1ccccc1)Nc1ccc(S(=O)(=O)NC(=O)c2ccc(N3CCN(Cc4ccccc4-c4ccc(Cl)cc4)CC3)cc2)cc1[N+](=O)[O-]` [ABT-737], the “effectiveness against cancer cells that overexpress Mcl-1” value in series [11] is on record as “not effective”. Also, in the series with BP3 cell line, the “apoptosis induction / cytotoxic activity against BP3 cell line” value is “no cytotoxic activity”.
As for `Cc1cc2c(C(=O)NCC(C)c3ccccc3)c(O)c(O)cc2c(O)c1-c1c(C)cc2c(C(=O)NCC(C)c3ccccc3)c(O)c(O)cc2c1O` (single isomer, unassigned) [Compound 12], in [1], the “in vivo activity in Bcl-2 transgenic mice” value was “weak in vivo activity”. Also, in series [7], the “Plasma stability (T = 1 h)” value is 28%. Also, in series [7] (compared to other diastereoisomers), the “plasma stability” value was “decreased plasma and microsomal stability”. Moreover, in [8], the “microsomal stability” value is “decreased plasma and microsomal stability”.
For the compound `Cc1cc2c(C(=O)NCC(C)c3ccccc3)c(O)c(O)cc2c(O)c1-c1c(C)cc2c(C(=O)NCC(C)c3ccccc3)c(O)c(O)cc2c1O` (single isomer, unassigned) [Compound 14], the EC50 in the series on H460 cells is 0.8 ± 0.09 µM. Also, the “toxicity in MEF/DKO cells” value in series [5] was “almost equally effective in killing both MEF/WT and MEF/DKO”. Further, the “Plasma stability (T = 1 h)” value in series [7] is 41%.
`Cc1cc2c(C(=O)NCC(C)c3ccccc3)c(O)c(O)cc2c(O)c1-c1c(C)cc2c(C(=O)NCC(C)c3ccccc3)c(O)c(O)cc2c1O` (racemic) [Compound 4]: the “inhibitory effect of tumor size” value with M2182 cells (10 mg/kg i.p. every 2 days, nine injections) is recorded as “weak inhibitory effect of tumor size”. The “inhibition of tumor growth in both flanks” value with M2182 cells (25 mg/kg i.p. every 2 days, nine injections) was “near complete inhibition of tumor growth”. The “inhibitory effect of tumor size compared with the control group” value with M2182 cells is “marked inhibitory effect of tumor size”. The “cytotoxicity in MEF/DKO cells compared to isomer 11” value in [5] (3-30 μM) was “higher cytotoxicity in MEF/DKO cells”.
On to `Cc1cc2c(C(=O)NCC(C)c3ccccc3)c(O)c(O)cc2c(O)c1-c1c(C)cc2c(C(=O)NCC(C)c3ccccc3)c(O)c(O)cc2c1O` (single isomer, unassigned) [Compound 13], for which the “Plasma stability (T = 1 h)” value in series [7] is given as 42%.

The values above are taken from patent publication US8487131B2 (Sanford-Burnham Medical Research Institute, priority 2009, dated 2013).
